Measurements: patent publication US20240262909A1, “TIM-3 MODULATES ANTI-TUMOR IMMUNITY BY REGULATING INFLAMMASOME ACTIVATION” (THE BRIGHAM AND WOMEN'S HOSPITAL, INC., priority 2021, published 2024)

Legend:
MC38-OVA tumor = MC38-OVA tumor growth and weight in Tim3fl.fl and Tim3fl.flxCD11c cre mice under inflammasome pathway inhibition; format: in vivo; conditions: Tim-3cko mice, 8 mg/kg
From the text: FIGS. 4A-4W: Loss of Tim3 on DC promotes inflammasome activation. (FIG. 4A) Unidirectional analysis of the fraction of DCs expressing ligand X and the fraction of T cells expressing the cognate Receptor; Ligand (MigDC): Receptor (CD8) interaction from WT (left) and Tim3cko (right) tumors. (FIG. 4B) Bar plot of data from FIG. 4A. (FIG. 4C). ECDF plots showing enrichment of IL-18 signature and (FIG. 4D) IL-1 signature in WT and Tim3^ckoCD8+ TILs. (FIG. 4E) ECDF plot of enrichment score for inflammasome signature in WT or Tim3^cko migratory DC, (p=1.5*10^−03), (FIG. 4F) Dot plot of selected genes from inflammasome signature. (FIG. 4G) ECDF plot of enrichment score for Oxidative Stress signature, (FIG. 4H) Dot plot of selected genes from Oxidative Stress signature. (FIG. 4I) MC38-OVA (0.5×10^6 cells) were subcutaneously implanted into Tim3^fl.fl and Tim3^fl.flxCD11c cre mice and on D14 tumors mononuclear cells were isolated and incubated with DHR123 for 30 minutes followed by flow-cytometric analysis of activated DHR123 as a measure of ROS activity in tumor infiltrating DC. […]
The C57BL/6-derived colon carcinoma MC38 and MC38-OVAdim were maintained at 37° C. with 5% CO2 in DMEM medium supplemented with 10% heat-inactivated fetal calf serum, penicillin, and streptomycin and 1% Sodium Pyruvate. […] Tumor size was determined by the formula L×W where L=length, W=width on the indicated days. […]

MC38-OVAdim tumor = MC38-OVAdim tumor growth and weight in Tim3fl.fl and Tim3fl.flZbtb46 cre mice with or without NAC; format: in vivo; conditions: Tim3cko mice, NAC daily in drinking water 40 mM
From the text: (§1) To investigate the effect of oxidative stress in Tim3^cko tumor bearing animals the inventors implanted Tim3^fl.fl and Tim3^fl.flZbtb46 cre mice with MC38-OVAdim and treated with or without antioxidant N-Acetyl-Cysteine (NAC) for the duration of the experiment. […] To determine whether mitigation of oxidative stress in Tim3^cko tumors also affected IL-1β levels intratumorally, the inventors prepared tumor supernatants and determined the levels of IL-1β in WT and Tim3cko animals treated with or without NAC.
(§2) The C57BL/6-derived colon carcinoma MC38 and MC38-OVAdim were maintained at 37° C. with 5% CO2 in DMEM medium supplemented with 10% heat-inactivated fetal calf serum, penicillin, and streptomycin and 1% Sodium Pyruvate. The C57BL/6-derived melanoma cell lines-B16 and B16-OVA-transfected clone were maintained at 37° C. with 5% CO2 in RPMI medium supplemented with 10% heat-inactivated fetal calf serum, penicillin, and streptomycin. MC38- OVA^dim (0.5×10^6), B16F10/B16-OVA (0.25×10^6) and MC38 (1.0×10^6) cells were injected subcutaneously in 100 μl PBS on the flank. Tumor size was determined by the formula L×W where L=length, W=width on the indicated days. In some experiments, mice were treated with anti-IL-1β (B122) and anti-IL-18 (YIGIF74-1 G7) or appropriate control Hamster Ig and Rat IgG2a (all at 8 mg/kg) i.p. on days 3, 6, 9 post tumor implantation. […]

IL-1β = IL-1β levels in tumor supernatants of WT and Tim3cko animals with or without NAC; format: in vivo, mice; conditions: Tim3cko tumors; NAC in drinking water 40 mM
From the text: as §1, §2

Compound | protective anti-tumor immunity observed in the Tim-3cko (MC38-OVA tumor) | protective inhibition of tumor growth (tumor growth) (MC38-OVAdim tumor) | protective inhibition of tumor growth (tumor weights post-harvest) (MC38-OVAdim tumor) | elevated intratumoral IL-1β levels (tumor supernatants) (IL-1β)
CC(C)(O)c1coc(S(=O)(=O)[N-]C(=O)Nc2c3c(cc4c2CCC4)CCC3)c1.[Na+] [CRID3] | abolished the protective anti-tumor immunity | – | – | –
CC(=O)N[C@@H](CS)C(=O)O [NAC, N-Acetyl-Cysteine] | – | completely abrogated | completely abrogated | completely reversed
